Consider two compounds from patent publication US20210386367A1, “DEVICES AND SYSTEMS FOR GASTROINTESTINAL MICROBIOME DETECTION AND MANIPULATION” (Progenity, Inc., priority 2018, published 2021).

SMILES strings stand for the structures. Converted amounts (≈) assume the structure as drawn.

Series [1] relates to Streptococcus spp. spontaneous mutants. The conditions noted are these: S. pneumoniae ATCC 49619; CLSI QC range shown in parentheses; cited from earlier work.
Series [2] shares this test system. Briefly: organism not typed. The class given is cell-based. How it is done: (§1) Select isolates were subcultured onto agar containing drug at the selection concentration, were identified by MALDI, and were frozen for broth microdilution MIC testing as described below.
(§2) To determine whether colonies growing on drug selection plates had elevated MIC values to the selecting antibiotic, susceptibility testing by broth microdilution was conducted on isolated mutants following methodology recommended by CLSI (1), (2), and (3) “Performance Standards for Antimicrobial Susceptibility Testing; Twenty-Eighth Informational Supplement.,” CLSI document M100-S28, 2018.
(§3) All wells in columns 2 through 12 of a standard 96-well microdilution plate (Costar 3795) were filled with 150 μL of the appropriate diluent. Then, 300 μL of the test agents were added to the wells of column 1 of the plates at […] the highest final concentration to be tested. Serial two-fold dilutions were made across the rows through column 11 using the Biomek 2000. The wells of column 12 contained no drug and served as the growth control wells. This plate served as the “mother plate” from which selected MIC assay plates or “daughter plates” were made.
2 μL of drug solution from each well of a mother plate was added to each corresponding well of the daughter plate in a single step. A standardized inoculum of each aerobic test organism was prepared per CLSI methods to equal a 0.5 McFarland standard, followed by a dilution of 1:20 in MHB II. The plates were then inoculated with 10 μL of the diluted inoculum using the Biomek 2000 from low to high drug concentration, resulting in a final concentration of approximately 5×10^5 CFU/mL. An un-inoculated plate was incubated for the purpose of assessing solubility of the drug in the test media.
The plates for the aerobic tests were stacked 3-4 high, covered with a sterile lid on the top plate, and incubated aerobically at 35° C. for 18-20 hr. The MIC was recorded as the lowest concentration of drug that inhibited visible growth of the organism.

Series [3] deals with Bacteroides spp. spontaneous mutants. Briefly: Broth microdilution MIC of spontaneous mutants. Format: cell-based. How it is done:
as §1, §2, §3
Daughter plates for anaerobic organisms were transferred to a Bactron II anaerobic chamber (Sheldon Manufacturing Inc., Cornelius, Oreg.) to reduce for 1 hour prior to inoculation. The inoculum for each organism was prepared in the anaerobic chamber and dispensed into sterile disposable reservoirs. Inoculation was completed using a multichannel pipette to transfer 10 μL of the inoculum into each well of the daughter plate. This yielded a final cell concentration in the daughter plates of approximately 1×10^6 CFU/mL.
For orientation: Dilution methods test growth across graded concentrations, often in twofold steps.

The conditions of series [4]: in vivo, po, 10 mg/kg; cited from earlier work.
For the next series, the system named is SIBO Bacteria. The settings on record: cited from earlier work.

What is called MIC is the least concentration at which growth counts as inhibited.

As for `CCC[C@@H]1C[C@@H](C(=O)N[C@@H]([C@H]2O[C@H](SC)[C@H](O)[C@@H](O)[C@H]2O)[C@H](C)Cl)N(C)C1` [CLIN], the “MIC, CLSI QC range” value in series [1] was “(0.03-0.12) μg/mL”. Also, the MIC in series [2] (S. agaloctiae ATCC 13813, selected on rifaximin 4X MIC, Colony A) stood at 0.03 µg/mL (≈ 0.0706 µM); in series [2] (S. agaloctiae ATCC 13813, selected on rifaximin 4X MIC, Colony B) it was 0.03 µg/mL (≈ 0.0706 µM); in series [2] (S. agaloctiae ATCC 13813, selected on rifaximin 8X MIC, Colony A) it was 0.03 µg/mL (≈ 0.0706 µM); in series [2] (S. agaloctiae ATCC 13813, selected on rifaximin 8X MIC, Colony B), 0.03 µg/mL (≈ 0.0706 µM); in series [2] (S. agaloctiae ATCC 13813 Parent) it was 0.015 µg/mL (≈ 0.0353 µM); in series [2] (S. pneumoniae ATCC 49619, selected on rifaximin 4X MIC, Colony A), 0.03 µg/mL (≈ 0.0706 µM). The minimal inhibitory concentration (MIC) in series [2] (S. pneumoniae ATCC 49619, selected on rifaximin 4X MIC, Colony B) was determined as 0.03 µg/mL (≈ 0.0706 µM); in series [2] (S. pneumoniae ATCC 49619, selected on rifaximin 8X MIC, Colony A), 0.03 µg/mL (≈ 0.0706 µM); in series [2] (S. pneumoniae ATCC 49619, selected on rifaximin 8X MIC, Colony B), 0.03 µg/mL (≈ 0.0706 µM); in series [2] (S. pneumoniae ATCC 49619 Parent), 0.06 µg/mL (≈ 0.141 µM); in series [2] (S. pyogenes ATCC 49399, selected on rifaximin 4X MIC, Colony A), 0.03 µg/mL (≈ 0.0706 µM); in series [2] (S. pyogenes ATCC 49399, selected on rifaximin 4X MIC, Colony B) it was 0.03 µg/mL (≈ 0.0706 µM). In addition, the minimal inhibitory concentration (MIC) in series [2] (S. pyogenes ATCC 49399, selected on rifaximin 8X MIC, Colony A) was determined as 0.03 µg/mL (≈ 0.0706 µM); in series [2] (S. pyogenes ATCC 49399, selected on rifaximin 8X MIC, Colony B), 0.03 µg/mL (≈ 0.0706 µM); in series [2] (S. pyogenes ATCC 49399 Parent) it was 0.03 µg/mL (≈ 0.0706 µM); in series [3] (B. fragilis ATCC 25285, selected on rifaximin 4X MIC, Colony A), 0.5 µg/mL; in series [3] (B. fragilis ATCC 25285, selected on rifaximin 4X MIC, Colony B) it was 0.5 µg/mL; in series [3] (B. fragilis ATCC 25285, selected on rifaximin 8X MIC, Colony A), 0.5 µg/mL. Moreover, the MIC is 0.5 µg/mL in series [3] (B. fragilis ATCC 25285, selected on rifaximin 8X MIC, Colony B); 0.25 µg/mL in series [3] (B. fragilis ATCC 25285 Parent); 1 µg/mL in series [3] (B. ovatus MMX 3503, selected on rifaximin 4X MIC, Colony A); 1 µg/mL in series [3] (B. ovatus MMX 3503, selected on rifaximin 4X MIC, Colony B); 0.5 µg/mL in series [3] (B. ovatus MMX 3503, selected on rifaximin 8X MIC, Colony A); 1 µg/mL in series [3] (B. ovatus MMX 3503, selected on rifaximin 8X MIC, Colony B). Also, the MIC in series [3] (B. ovatus MMX 3503 Parent) was 0.5 µg/mL; in series [3] (B. vulgatus ATCC 8482, selected on ceftriaxone 4X MIC, Colony A) it was 0.25 µg/mL; in series [3] (B. vulgatus ATCC 8482, selected on ceftriaxone 4X MIC, Colony B), 0.25 µg/mL; in series [3] (B. vulgatus ATCC 8482, selected on rifaximin 4X MIC, Colony A) it was 0.25 µg/mL; in series [3] (B. vulgatus ATCC 8482, selected on rifaximin 4X MIC, Colony B), 0.12 µg/mL; in series [3] (B. vulgatus ATCC 8482, selected on rifaximin 8X MIC, Colony A) it was 0.12 µg/mL. Further, the MIC in series [3] (B. vulgatus ATCC 8482, selected on rifaximin 8X MIC, Colony B) stood at 0.25 µg/mL; in series [3] (B. vulgatus ATCC 8482 Parent (Table 50)), 0.25 µg/mL; in series [3] (B. vulgatus ATCC 8482 Parent (Table 54)) it was 0.25 µg/mL.

Regarding `C[C@@H](O)[C@H]1C(=O)N2C(C(=O)O)=C(S[C@@H]3CN[C@H](C(=O)Nc4cccc(C(=O)O)c4)C3)[C@H](C)[C@H]12` [ertapenem], the “Rat oral exposure (Dose)” value in series [4] is on record as 0.39 μM*h at 10. Also, the “activity against SIBO organisms” value with SIBO Bacteria is on record as “active against SIBO organisms”.
